Test results as given in PubChem BioAssay AID248 (DTP/NCI, 2004).
Where “and” joins values, the source holds several entries; their conditions need not be identical. Equal entries are not always repeated. Inconclusive results and toxic doses are left out. Rule as the data show it: active = T/C of 150% or more; inactive = T/C below 125%.

System: L1210 leukemia ip in BDF1 mice, survival T/C
Assay: NCI In Vivo Anticancer Drug Screen. Data for tumor model L1210 Leukemia (intraperitoneal) in B6D2F1 (BDF1) mice
Conditions: endpoint: mean survival time, higher = longer survival
In short: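 Each compound was tested against a transplantable tumor grown in mice. The endpoint was survival, with treated animals benchmarked against vehicle controls as a simple ratio.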

[1] = dose: 100.0 mg/kg/injection, schedule: Q04DX003 (ip), vehicle: Klucel (hydroxypropylcellulose) (HPC)
[2] = dose: 200.0 mg/kg/injection, schedule: Q04DX003 (ip), vehicle: Klucel (hydroxypropylcellulose) (HPC)
[3] = dose: 400.0 mg/kg/injection, schedule: Q04DX003 (ip), vehicle: Klucel (hydroxypropylcellulose) (HPC)
[4] = dose: 100.0 mg/kg/injection, schedule: Q01DX001 (ip), vehicle: saline
[5] = dose: 200.0 mg/kg/injection, schedule: Q01DX001 (ip), vehicle: saline
[6] = dose: 400.0 mg/kg/injection, schedule: Q01DX001 (ip), vehicle: saline
[7] = dose: 100.0 mg/kg/injection, schedule: Q01DX001 (ip), vehicle: Klucel (hydroxypropylcellulose) (HPC)
[8] = dose: 200.0 mg/kg/injection, schedule: Q01DX001 (ip), vehicle: Klucel (hydroxypropylcellulose) (HPC)
[9] = dose: 400.0 mg/kg/injection, schedule: Q01DX001 (ip), vehicle: Klucel (hydroxypropylcellulose) (HPC)
[10] = dose: 100.0 mg/kg/injection, schedule: Q01DX001 (ip), vehicle: carboxymethylcellulose (CMC)
[11] = dose: 200.0 mg/kg/injection, schedule: Q01DX001 (ip), vehicle: carboxymethylcellulose (CMC)
[12] = dose: 400.0 mg/kg/injection, schedule: Q01DX001 (ip), vehicle: carboxymethylcellulose (CMC)
[13] = dose: 100.0 mg/kg/injection, schedule: Q01DX009 (ip), vehicle: Klucel (hydroxypropylcellulose) (HPC)
[14] = dose: 200.0 mg/kg/injection, schedule: Q01DX009 (ip), vehicle: Klucel (hydroxypropylcellulose) (HPC)
[15] = dose: 400.0 mg/kg/injection, schedule: Q01DX009 (ip), vehicle: Klucel (hydroxypropylcellulose) (HPC)
[16] = dose: 100.0 mg/kg/injection, schedule: Q04DX002 (ip), vehicle: Klucel (hydroxypropylcellulose) (HPC)
[17] = dose: 200.0 mg/kg/injection, schedule: Q04DX002 (ip), vehicle: Klucel (hydroxypropylcellulose) (HPC)
[18] = dose: 400.0 mg/kg/injection, schedule: Q04DX002 (ip), vehicle: Klucel (hydroxypropylcellulose) (HPC)
[19] = dose: 100.0 mg/kg/injection, schedule: Q01DX009 (ip), vehicle: saline with Tween-80
[20] = dose: 100.0 mg/kg/injection, schedule: Q04DX003 (ip), vehicle: saline with Tween-80
[21] = dose: 200.0 mg/kg/injection, schedule: Q01DX009 (ip), vehicle: saline with Tween-80
[22] = dose: 200.0 mg/kg/injection, schedule: Q04DX003 (ip), vehicle: saline with Tween-80
[23] = dose: 400.0 mg/kg/injection, schedule: Q04DX003 (ip), vehicle: saline with Tween-80

Measured: T/C

Oc1ccccc1CNc1ccccc1
inactive: [1] 96 % of control | [2] 94 % of control | [3] 96 % of control

CN(C)CCCN1CC2CCCC1O2 (stereo not given)
inactive: dose: 50.0 mg/kg/injection, schedule: Q01DX001 (ip), vehicle: saline 90 % of control | [4] 102 % of control | [5] 100 % of control | [6] 94 % of control

c1ccc2cc(C3OCCCO3)ccc2c1
inactive: [7] 94 % of control | [8] 100 % of control | [9] 100 % of control

CC(=O)CC(=O)C(F)(F)F.CC(=O)CC(=O)C(F)(F)F.CC(=O)CC(=O)C(F)(F)F.[Ru]
inactive: [10] 96 % of control | [11] 94 % of control | [12] 88 % of control

CCCCCCC(=O)CCCC(C)CCCC(C)C (stereo not given)
inactive: [13] 91 % of control | [1] 93 % of control | [14] 97 % of control | [2] 95 % of control | [15] 98 % of control | [3] 88 % of control

COc1ccc(Cl)cc1NC(=S)Nc1ccccc1
inactive: [16] 90 % of control | [17] 101 % of control | [18] 101 % of control

CCCN(CCC)CCCCCO
inactive: dose: 50.0 mg/kg/injection, schedule: Q01DX009 (ip), vehicle: saline with Tween-80 102 % of control | [19] 106 % of control | [20] 94 % of control | [21] 102 % of control | [22] 102 % of control

CC(=O)Nc1c(Cl)c(Cl)c(Cl)c2c1-c1ccc(Cl)cc1C2
inactive: [10] 92 % of control | [11] 101 % of control | [12] 97 % of control

COC(=O)C#CC(c1ccccc1)(c1ccccc1)c1ccccc1
inactive: [20] 90 % of control | [22] 87 % of control | [23] 90 % of control

CCCCCCC(=O)CC(C)C
inactive: [13] 101 % of control | [1] 97 % of control | [14] 103 % of control | [2] 102 % of control | [15] 109 % of control | [3] 107 % of control

Cc1csc2ccc([N+](=O)[O-])cc12
inactive: [4] 106 % of control | [5] 101 % of control | [6] 101 % of control

COc1ccc(C(=O)C[N+](=O)[O-])cc1
inactive: [19] 94 % of control | [20] 106 % of control | [21] 99 % of control | [22] 103 % of control | [23] 101 % of control

NC(=O)N/N=C1\CC2CCC1C2Cl (stereo not given)
inactive: dose: 75.0 mg/kg/injection, schedule: Q01DX001 (ip), vehicle: saline 100 % of control and 107 % of control | dose: 150.0 mg/kg/injection, schedule: Q01DX001 (ip), vehicle: saline 96 % of control | dose: 300.0 mg/kg/injection, schedule: Q01DX001 (ip), vehicle: saline 98 % of control and 88 % of control

CCN(CC)CCCC(C)Nc1c2ccc(Cl)cc2nc2ccc(F)cc12 (stereo not given)
inactive: dose: 44.0 mg/kg/injection, schedule: Q01DX Z (ip), vehicle: saline 111 % of control | dose: 66.0 mg/kg/injection, schedule: Q01DX Z (ip), vehicle: saline 117 % of control | dose: 100.0 mg/kg/injection, schedule: Q01DX Z (ip), vehicle: saline 117 % of control

O=C(OCC1OCOC(COC(=O)c2ccccc2)C1O)c1ccccc1 (stereo not given)
inactive: dose: 50.0 mg/kg/injection, schedule: Q04DX002 (ip), vehicle: saline with Tween-80 118 % of control | dose: 100.0 mg/kg/injection, schedule: Q04DX002 (ip), vehicle: saline with Tween-80 112 % of control | dose: 200.0 mg/kg/injection, schedule: Q04DX002 (ip), vehicle: saline with Tween-80 102 % of control

CC(=O)OC1CCC(NC(=O)NCCCl)CC1 (stereo not given)
inactive: dose: 100.0 mg/kg/injection, schedule: Q01DX001 (ip), vehicle: other 96 % of control | dose: 200.0 mg/kg/injection, schedule: Q01DX001 (ip), vehicle: other 98 % of control | dose: 400.0 mg/kg/injection, schedule: Q01DX001 (ip), vehicle: other 88 % of control

CC(=O)Nc1ccc(OC(=S)N(C)C)cc1
inactive: [1] 96 % of control | [2] 97 % of control | [3] 101 % of control

O=C(O)CCCCCCCCCCCCCCCO
inactive: [20] 96 % of control | [22] 96 % of control | [23] 91 % of control

Cn1c(O)c(O)c(=O)n(C)c1=O
inactive: dose: 50.0 mg/kg/injection, schedule: Q01DX009 (ip), vehicle: Klucel (hydroxypropylcellulose) (HPC) 101 % of control | [13] 98 % of control | [14] 88 % of control

CC(=O)Nc1cc(F)cc(F)c1Br
inactive: [10] 105 % of control | [11] 102 % of control | [12] 112 % of control

CSc1cc(N)nc(N)c1[N+](=O)[O-]
inactive: [7] 99 % of control | [8] 96 % of control | [9] 94 % of control

N#C/C(=C/c1ccncc1)C(N)=O
inactive: [20] 98 % of control | [22] 94 % of control | [23] 99 % of control

CN(CCNC(=O)NCCCCCCNC(=O)NCCN(C)c1ccccc1)c1ccccc1
inactive: [16] 105 % of control | [17] 97 % of control | [18] 108 % of control
